Assay results as given in patent publication EP4603105A1, “PHARMACEUTICAL COMPOSITION CONTAINING CYCLIC COMPOUND HAVING SELECTIVE KRAS INHIBITORY EFFECT AGAINST HRAS AND NRAS” (CHUGAI SEIYAKU KABUSHIKI KAISHA, priority 2022, dated 2024).
*1 amine or outer side, *2 acyl side, *3 side chain or, on linkers, in order; H or OH if unused. Where a SMILES comes first, the peptide text is derived from it. Bridges are numbered along the chain shown (N, C = ends). [ ]: non-standard residue; d: D form. The star is where a group is joined. hPhe(3,5-F2-4-CF3) = N[C@@H](CCc1cc(F)c(C(F)(F)F)c(F)c1)C(=O)O; X23 = O=C([C@H](Cc1ccc(C(F)(F)F)cc1)N(CC1CCCC1)[*:1])[*:2]; hPhe(3-Cl-4-CF3) = N[C@@H](CCc1ccc(C(F)(F)F)c(Cl)c1)C(=O)O; NPrPhe(4-CF3) = CCCN[C@@H](Cc1ccc(C(F)(F)F)cc1)C(=O)O; NMeGly(cPent) = CN[C@H](C(=O)O)C1CCCC1; X7 = C[C@@](N[*:1])(C(=O)[*:2])C1CC1; NMeD = CN[C@@H](CC(=O)O)C(=O)O; NMeL = CN[C@@H](CC(C)C)C(=O)O; Morpholide = C1CN(*)CCO1; NMeA = CN[C@@H](C)C(=O)O; Ac5c = NC1(C(=O)O)CCCC1; Aze = O=C(O)[C@@H]1CCN1; Ac4c = NC1(C(=O)O)CCC1; Sar = CNCC(=O)O

Tests used:
[1] = molecular target: GDP-bound NRAS wild-type protein (Homo sapiens, UniProt P01111); experiment: Binding to NRAS by surface plasmon resonance (SPR), KD and KD ratio to KRAS
Sequence of GDP-bound NRAS wild-type protein (P01111 whole entry): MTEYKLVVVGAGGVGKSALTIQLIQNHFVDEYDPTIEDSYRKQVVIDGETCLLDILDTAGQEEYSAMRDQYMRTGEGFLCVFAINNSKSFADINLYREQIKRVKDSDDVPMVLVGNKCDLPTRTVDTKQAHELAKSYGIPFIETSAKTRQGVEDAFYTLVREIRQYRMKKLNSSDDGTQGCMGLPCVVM
Summary of the method: (§1)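 Affinity is measured by surface plasmon resonance at 30°C against captured, GDP-loaded RAS carrying a biotinylated Avi tag. Compounds are titrated by single-cycle kinetics, and KD comes from a 1:1 fit.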

[2] = system: human lung cancer strain NCI-H441; assay type: cell-based
Summary of the method: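 Readout: […] after the ATP-based reagent. Compound: serial dilutions in dimethyl sulfoxide.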

HRAS wild-type protein = HRAS wild-type protein (Homo sapiens, UniProt P01112); experiment: Binding to HRAS by surface plasmon resonance (SPR), KD and KD ratio to KRAS
Sequence of HRAS wild-type protein (P01112 whole entry): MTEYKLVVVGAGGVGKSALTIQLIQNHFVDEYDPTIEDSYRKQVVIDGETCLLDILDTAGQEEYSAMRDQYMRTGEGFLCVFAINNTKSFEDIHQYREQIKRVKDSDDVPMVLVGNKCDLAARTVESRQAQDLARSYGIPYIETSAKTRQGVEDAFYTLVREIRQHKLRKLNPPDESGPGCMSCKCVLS
Summary of the method: as §1

[3] = ratio of KD for GDP-bound NRAS wild-type protein to KD for KRAS
[4] = ratio of KD for HRAS wild-type protein to KD for KRAS
[5] = ratio of the KD value with respect to GDP-bound NRAS wild-type protein to the KD value with respect to KRAS
[6] = ratio of the KD value with respect to HRAS wild-type protein to the KD value with respect to KRAS

| SMILES | NRAS /KRAS [1, 3] | IC50 [2] | HRAS /KRAS (HRAS wild-type protein; [4]) | further results |
| --- | --- | --- | --- | --- |
| CCO[C@@H]1C[C@H]2C(=O)NC3(CCC3)C(=O)N(C)[C@@H](C3CCCC3)C(=O)N(C)[C@H](C(=O)N3CCOCC3)CC(=O)N(C)[C@@H](Cc3cccc(Cl)c3)C(=O)N[C@@H]([C@@H](C)CC)C(=O)N(C)CC(=O)N(C)[C@H]3CCCCCN(C3=O)[C@@H](Cc3ccc(C(F)(F)F)cc3)C(=O)N(C)CC(=O)N[C@@H](CCc3cc(F)c(C(F)(F)F)c(F)c3)C(=O)N2C1 [PP0857] | B (a compound having 3 or more and less than 10 is denoted as B) | 111 nM | B (a compound having 3 or more and less than 10 is denoted as B) | – |
| CCCN1C(=O)[C@@H]2CCN2C(=O)[C@H](C)N(C)C(=O)[C@H]([C@@H](C)CC)NC(=O)[C@H](CC(C)C)N(C)C(=O)C[C@@H](C(=O)N2CCOCC2)N(C)C(=O)[C@H](C2CCCC2)N(C)C(=O)C2(CCCC2)NC(=O)CN(C)C(=O)[C@H](CCc2ccc(C(F)(F)F)c(Cl)c2)NC(=O)CN(C)C(=O)[C@@H]1Cc1ccc(C(F)(F)F)cc1 [PP0287] ([NMeL]I[NMeA][Aze][NPrPhe(4-CF3)][Sar][hPhe(3-Cl-4-CF3)][Sar][Ac5c][NMeGly(cPent)][NMeD]-Morpholide; lactam N-11) | C (A compound having a KD ratio of 0.1 or more and less than 3 is denoted as C) | 14.5 nM | C (A compound having a KD ratio of 0.1 or more and less than 3 is denoted as C) | – |
| CCC[C@H]1C(=O)N[C@@H]([C@@H](C)CC)C(=O)N(C2CC2)CC(=O)N(C)[C@H]2C/C=C\CCN(C2=O)[C@@H](Cc2ccc(C)cc2)C(=O)N(C)CC(=O)N[C@@H](CCc2cc(F)c(C(F)(F)F)c(F)c2)C(=O)N2C[C@H](OCC)C[C@H]2C(=O)N(C)C2(CCC2)C(=O)N(C)[C@@H](C2CCCC2)C(=O)N(C)[C@H](C(=O)N2CCCC2)CC(=O)N1C [PP3113] | A (a compound having 10 or more and less than 20 is denoted as A) | 6.1 nM | A (a compound having 10 or more and less than 20 is denoted as A) | – |
| CCO[C@@H]1C[C@H]2C(=O)N(C)C3(CCC3)C(=O)N(C)[C@@H](C(CC)CC)C(=O)N(C)[C@H](C(=O)N(C)C)CC(=O)N(C)[C@@H](COC)C(=O)N[C@@H]([C@@H](C)CC)C(=O)N(C3CC3)CC(=O)N(C)[C@H]3C/C=C\CCN(C3=O)[C@@H](CC3CCCCC3)C(=O)N(C)CC(=O)N[C@@H](CCc3ccc(C(F)(F)F)c(OC)c3)C(=O)N2C1 [PP2339] | – | 59.3 nM | – | NRAS /KRAS [1, 5]: A (a compound having 10 or more and less than 20 is denoted as A); HRAS /KRAS (HRAS wild-type protein; [6]): A (a compound having 10 or more and less than 20 is denoted as A) |
| CC[C@H](C)[C@@H]1NC(=O)[C@H](CC)N(C)C(=O)C[C@@H](C(=O)N(C)C)N(C)C(=O)[C@H](C2CCCC2)N(C)C(=O)C2(CCCC2)N(C)C(=O)[C@@H]2CCCN2C(=O)[C@H](CCc2cc(F)c(C(F)(F)F)c(F)c2)NC(=O)CN(C)C(=O)[C@H](Cc2ccc(C)cc2)N2CC/C=C\C[C@@H](C2=O)N(C)C(=O)CN(C)C1=O [PP1807] | – | 5 nM | – | NRAS /KRAS ([1]; ratio of KD value for GDP-bound NRAS wild-type protein to KD value for KRAS (SPR)): A (a compound having 10 or more and less than 20 is denoted as A); HRAS /KRAS (HRAS wild-type protein; ratio of KD value for HRAS wild-type protein to KD value for KRAS (SPR)): B (a compound having 3 or more and less than 10 is denoted as B) |
| CCCN1C(=O)CN(C)C(=O)[C@@H]2CCN2C(=O)[C@H]([C@@H](C)CC)NC(=O)[C@H](CC(C)C)N(C)C(=O)C[C@@H](C(=O)N(C)C)NC(=O)[C@H](C2CCCC2)N(C)C(=O)C2(CCC2)NC(=O)[C@@H]2CCCN2C(=O)[C@H](CCc2ccc(C(F)(F)F)c(Cl)c2)NC(=O)CN(C)C(=O)[C@@H]1Cc1ccc(C(F)(F)F)cc1 [PP0374] ([NMeL]I[Aze][Sar][NPrPhe(4-CF3)][Sar][hPhe(3-Cl-4-CF3)]P[Ac4c][NMeGly(cPent)]D-NMe2; lactam N-11) | B (a compound having 3 or more and less than 10 is denoted as B) | 142 nM | B (a compound having 3 or more and less than 10 is denoted as B) | – |
| CC[C@H](C)[C@@H]1NC(=O)[C@H](CC2CC2)N(C)C(=O)C[C@@H](C(=O)N(C)C)N(C)C(=O)[C@H](C2CCCC2)N(C)C(=O)C2(CC(C)(C)C2)NC(=O)[C@@H]2C[C@@H](F)CN2C(=O)[C@H](CCc2cc(F)c(C(F)(F)F)c(F)c2)NC(=O)CN(C)C(=O)[C@H](Cc2ccc(C)cc2)N2CC/C=C\C[C@@H](C2=O)N(C)C(=O)CN(C)C1=O [PP2804] | A (a compound having 10 or more and less than 20 is denoted as A) | 2.2 nM | A (a compound having 10 or more and less than 20 is denoted as A) | – |
| CCO[C@@H]1C[C@H]2C(=O)NC3(CCC3)C(=O)N(C)[C@@H](C3CCCC3)C(=O)N(C)[C@H](C(=O)N3CCOCC3)CC(=O)N(C)[C@@H](CC)C(=O)N[C@@H]([C@@H](C)CC)C(=O)N(C)CC(=O)N(C)[C@H]3C/C=C\CCN(C3=O)[C@@H](Cc3ccc(C(F)(F)F)cc3)C(=O)N(C)CC(=O)N[C@@H](CCc3cc(F)c(C(F)(F)F)c(F)c3)C(=O)N2C1 [PP1092] | A (a compound having 10 or more and less than 20 is denoted as A) | 15.8 nM | A (a compound having 10 or more and less than 20 is denoted as A) | – |
| CCO[C@@H]1C[C@H]2C(=O)NC3(CCC3)C(=O)N(C)[C@@H](C3CCCC3)C(=O)N(C)[C@H](C(=O)N(C)CCOC)CC(=O)N(C)[C@@H](C)C(=O)N[C@@H]([C@@H](C)CC)C(=O)N(C)CC(=O)N(C)[C@H]3C/C=C\CCN(C3=O)[C@@H](Cc3ccc(C(F)(F)F)cc3)C(=O)N(C)CC(=O)N[C@@H](CCc3cc(F)c(C(F)(F)F)c(F)c3)C(=O)N2C1 [PP1319] | – | 57.5 nM | – | NRAS /KRAS ([1]; ratio of KD with respect to GDP-bound NRAS wild-type protein to KD with respect to KRAS): A (a compound having 10 or more and less than 20 is denoted as A); HRAS /KRAS (HRAS wild-type protein; ratio of KD with respect to HRAS wild-type protein to KD with respect to KRAS): B (a compound having 3 or more and less than 10 is denoted as B) |
| CCCN1C(=O)[C@@H]2CCN2C(=O)CN(C)C(=O)[C@H]([C@@H](C)CC)NC(=O)[C@H](CC(C)C)N(C)C(=O)C[C@@H](C(=O)N2CCOCC2)N(C)C(=O)[C@H](C2CCCC2)N(C)C(=O)[C@](C)(C2CC2)NC(=O)[C@@H]2CCCN2C(=O)[C@H](CCc2cc(F)c(C(F)(F)F)c(F)c2)NC(=O)CN(C)C(=O)[C@@H]1Cc1ccc(C(F)(F)F)cc1 [PP0791] ([NMeL]I[Sar][Aze][NPrPhe(4-CF3)][Sar][hPhe(3,5-F2-4-CF3)]P[X7][NMeGly(cPent)][NMeD]-Morpholide; lactam N-11) | C (A compound having a KD ratio of 0.1 or more and less than 3 is denoted as C) | 86 nM | B (a compound having 3 or more and less than 10 is denoted as B) | – |
| CCO[C@@H]1C[C@H]2C(=O)NC3(CCC3)C(=O)N(C)[C@@H](C3CCCC3)C(=O)N(C)[C@H](C(=O)N(C)C)CC(=O)N(C)[C@@H](CC(C)C)C(=O)N[C@@H]([C@@H](C)CC)C(=O)N3CC[C@H]3C(=O)N(C)[C@H]3CC(C)=C(C)CN(C3=O)[C@@H](Cc3ccc(C(F)(F)F)cc3)C(=O)N(C)CC(=O)N[C@@H](CCc3cc(F)c(C(F)(F)F)c(F)c3)C(=O)N2C1 [PP1047] | C (A compound having a KD ratio of 0.1 or more and less than 3 is denoted as C) | 117 nM | C (A compound having a KD ratio of 0.1 or more and less than 3 is denoted as C) | – |
| CC[C@H](C)[C@@H]1NC(=O)[C@H](CC(C)C)N(C)C(=O)C[C@@H](C(=O)N2CCOCC2)N(C)C(=O)[C@H](C2CCCC2)N(C)C(=O)C2(CCCC2)NC(=O)[C@@H]2CCCN2C(=O)[C@H](CCc2ccc(C(F)(F)F)c(Cl)c2)NC(=O)CN(C)C(=O)[C@H](Cc2ccc(C(F)(F)F)cc2)N(CC2CCCC2)C(=O)CN(C)C(=O)CN(C)C1=O [PP0124] ([NMeL]I[Sar][Sar][X23][Sar][hPhe(3-Cl-4-CF3)]P[Ac5c][NMeGly(cPent)][NMeD]-Morpholide; lactam N-11) | C (A compound having a KD ratio of 0.1 or more and less than 3 is denoted as C) | 48.8 nM | C (A compound having a KD ratio of 0.1 or more and less than 3 is denoted as C) | – |
| CC[C@H](C)[C@@H]1NC(=O)[C@H](COC)N(C)C(=O)C[C@@H](C(=O)N2CCOCC2)N(C)C(=O)[C@H](C2CCCC2)N(C)C(=O)C2(CCCC2)NC(=O)[C@@H]2CC(F)(F)CN2C(=O)[C@H](CCc2cc(F)c(C(F)(F)F)c(F)c2)NC(=O)CN(C)C(=O)[C@H](Cc2ccc(C(F)(F)F)cc2)N2CCCCC[C@@H](C2=O)N(C)C(=O)CN(C)C1=O [PP0846] | B (a compound having 3 or more and less than 10 is denoted as B) | 22.2 nM | B (a compound having 3 or more and less than 10 is denoted as B) | – |
| CCO[C@@H]1C[C@H]2C(=O)NC3(CC(C)(C)C3)C(=O)N(C)[C@@H](C3CCCC3)C(=O)N(C)[C@H](C(=O)N3CCCCC3)CC(=O)N(C)[C@@H](CC)C(=O)N[C@@H]([C@@H](C)CC)C(=O)N(C)CC(=O)N(C)[C@H]3C/C=C\CCN(C3=O)[C@@H](Cc3ccc(C(F)(F)F)cc3)C(=O)N(C)CC(=O)N[C@@H](CCc3cc(F)c(C(F)(F)F)c(F)c3)C(=O)N2C1 [PP1945] | – | 33.8 nM | – | NRAS /KRAS [1, 5]: AA (a compound having 20 or more is denoted as AA); HRAS /KRAS (HRAS wild-type protein; [6]): A (a compound having 10 or more and less than 20 is denoted as A) |
